Measurements from patent US20210100777A1, “HEAT SHOCK PROTEIN (HSP) INHIBITION AND MONITORING EFFECTIVENESS THEREOF” (H. LEE MOFFITT CANCER CENTER AND RESEARCH INSTITUTE, INC., priority 2013, published 2021).
Entries after “also recorded” stand apart in the source; their conditions may differ.

Assays:
[1] = system: FOXO3a in M229R and 1205LuR cells; test: Immunofluorescent staining; type: cell-based; details: 48 hours; XL888 300 nM, GDC-0941 3 μM
Description: Immunofluorescent staining. M229R and 1205LuR cells were seeded at 50% confluency onto glass coverslips in a 12 well plate and allowed to adhere overnight. […] Fixed cells were separately stained by incubating overnight with rabbit anti-BIM or anti-FOXO3a antibodies followed by staining with secondary anti-rabbit AF488. Cells were then mounted onto slides with ProLong Gold Antifade containing DAPI (Invitrogen) and imaged with a Leica confocal microscope equipped with a 40x oil immersion lens.

M229R xenografts = test: Xenograft experiment; type: in vivo, BALB SCID mice; details: 100 mg/kg, PO, 3× week, 15 days
Description: Xenograft experiments. BALB SCID mice (The Jackson Laboratory, Bar Harbor, Me.) were subcutaneously injected with 2.5×10^6 cells per mouse (resuspended in 111 μL L-15 media, 10 mM HEPES, 37.5 μL Matrigel). Tumors were grown to approximately 100 mm^3 prior to dosing. Mice were treated with either 100 mg XL888/kg (n=5) or an equivalent volume of vehicle (10 mM HCl), 3 times per week by oral gavage. Mouse weights and tumor volumes (L×W2/2) were measured 3 times per week. Upon completion of the experiment, vehicle and drug treated tumor biopsies were processed for LC-MRM analysis (as above).

[2] = system: vemurafenib resistant melanoma cell lines; test: Apoptosis, Annexin-V staining and flow cytometry; type: cell-based; details: 72 or 144 hours
Description: Flow cytometry. […] In some studies, RPMI7951 cells were treated with 300 nM XL888 in the presence or absence of 3 μM vemurafenib and harvested after 24, 48 and 72 hours.

[3] = system: vemurafenib resistant melanoma cell lines grown as 3D collagen implanted spheroids; test: 3D spheroid assay; type: cell-based; details: 1 μM, 144 hours
Description: 3D spheroid assays. Melanoma spheroids were prepared using the liquid overlay method (Smalley et al. Mol Cancer Ther. 5: 1136-1144 (2006)). Spheroids were treated for 144 hours with either vehicle or 1 μM XL888 before being washed (3 times in media) and treated with calcein-AM and ethidium bromide (Molecular Probes, Eugene, Oreg.) for 1 hour at 37° C., to according to the manufacturer's instructions. Pictures of the invading spheroids were taken using a Nikon-300 inverted fluorescence microscope.

HSP70 isoform 1 (HSP71) = test: LC-MRM pharmacodynamic assay of HSP90 inhibition in melanoma cell lines; type: cell-based; details: 300 nM, 0-48 hours; naïve, intrinsically resistant and acquired resistant cell lines
Description: Proteomics Sample Preparation. Proteins were extracted as described for Western Blotting and processed as described in (Remily-Wood et al., Proteomics Clin. App. 5:383-96 (2011)).
Liquid chromatography, multiple reaction monitoring mass (LC-MRM) spectrometry (LC MRM) analysis. LC-MRM was performed as described in (Remily-Wood et al., Proteomics Clin. App. 5:383-96 (2011)). Protein expression was determined using the ratio of peak area of the native peptide to corresponding internal standard; normalization of tissue results was performed using GAPDH to control for cellularity (Table 9). Data were then normalized to the pretreatment (cell lines) or vehicle controls (tissue) and plotted to show the changes in expression after drug treatment.

[4] = system: vemurafenib sensitive and naïve cell lines; test: Cell cycle analysis, propidium iodide flow cytometry; type: cell-based; details: 300 nM, 24 hours
Description: FIGS. 15A, 15B, 15C, 15D, 15E, 15F, and 15G show the HSP90 inhibitor XL888 blocks the growth and survival of melanoma cell lines with diverse mechanisms of vemurafenib resistance. FIGS. 15A and 15B are graphs showing growth (%) of matched pairs of vemurafenib naïve and resistant melanoma cell lines and melanoma cell lines with intrinsic resistance. In FIG. 15A, cells were treated with increasing concentrations of vemurafenib (1 nM-10 μM: 72 hrs) before being subject to the MTT assay. […] FIGS. 15C to 15E are bar graphs showing the cell cycle effects of XL888 (300 nM: 24 hours) upon vemurafenib sensitive and naïve cell lines. Cells were fixed, stained with propidium iodide and distributions analyzed by flow cytometry. FIG. 15F-G are bar graphs showing that XL888 induced apoptosis in every model of acquired vemurafenib resistance tested. Cells were treated for either 72 or 144 hours with XL888 (300 nM) followed by Annexin-V. Apoptosis was measured by flow cytometry.

melanoma cell lines = test: Colony formation assay; type: cell-based; details: 300 nM, up to 4 weeks; any of the cell lines
Description: Colony formation. Cells (1×10^4 per ml) were grown overnight before being treated with vehicle (DMSO) or XL888 (300 nM) for 4 weeks as described in (Paraiso et al., Br. J. Cancer 102:1724-30 (2010)), and relative colony density was determined by solubilizing the crystal violet dye in 10% acetic acid followed by measurement of absorbance at 450 nm.

[5] = system: HSP90 client and apoptosis proteins in vemurafenib-resistant melanoma cell lines; test: Western blotting; type: cell-based
Text: Western blotting. Proteins were extracted and blotted for as described previously (Smalley et al., Br. J. Cancer 96:445-9 (2007)). […] The antibodies to IGF1R, PDGFRβ, ARAF, CRAF, phospho-AKT Ser473, total AKT, phospho-ERK, total ERK, cyclin D1, phospho-S6, total S6, phospho-BIM (Ser69), total BIM, HSP70 and MCL-1 were from Cell Signaling Technology (Beverly, Mass.). Anti-26S was purchased from Abcam (Cambridge, Mass.), and the antibody against COT was from Santa Cruz Biotechnology (Santa Cruz, Calif.).

CC[C@@H](C)Nc1cc(C(=O)N[C@@H]2C[C@H]3CC[C@@H](C2)N3c2ccc(C(=O)C3CC3)cn2)c(C)cc1C(N)=O [XL888, 5-((R)-sec-butylamino)-N1-((1R,3s,5S)-8-(5-(cyclopropanecarbonyl)pyridin-2-yl)-8-azabicyclo[3.2.1]octan-3-yl)-2-methylterephthalamide]
nuclear accumulation of FOXO3a [1]: highly efficient at increasing nuclear accumulation of FOXO3a | regression of established M229R xenografts (M229R xenografts): significantly induce the regression; also recorded: significant levels of tumor regression | apoptosis ([2]; 300 nM, every cell line tested): > 66% | apoptosis versus MEK, PI3K and MEK+PI3K inhibitors ([2]; resistance through COT, PDGFRβ overexpression and two unknown mechanisms): significantly higher levels of apoptosis than each of the other drug combinations | cell death in 3D spheroids [3]: effective at inducing cell death | expression of HSP70 isoform 1 (HSP71) (HSP70 isoform 1 (HSP71)): robust time-dependent increases | cell cycle effect ([4]; WM164, M229, M229R, M249, M249R, 1205Lu, WM39): G1-phase cell cycle arrest | cell cycle effect ([4]; WM164R, 1205LuR, RPMI 7951): G2/M phase cell cycle arrest | colony formation (melanoma cell lines): no signs of colony formation | 26S proteasome, Western blot ([5]; 300 nM, 48 hours): partly degrade the 26S proteasome | BIM phosphorylation at Ser69 ([5]; 300 nM, 48 hours, all cell lines tested apart from M249R): decreased BIM phosphorylation at Ser69 | client protein degradation and signaling ([5]; 300 nM, 48 hours, all cell lines with acquired BRAF inhibitor resistance): degradation of IGF1R, PDGFRβ, ARAF, CRAF and cyclin D1 and the inhibition of AKT, ERK and S6 signaling | BIM expression ([5]; 300 nM, 48 hours, entire cell line panel): increased BIM expression across the entire cell line panel | HSP70 expression, Western blot ([5]; 300 nM, 48 hours, every cell line evaluated): increases in HSP70 expression | expression of Mcl-1, Western blot ([5]; 300 nM, 48 hours, resistance through PDGFRβ, COT overexpression and two unknown mechanisms): marked decrease in the expression of Mcl-1 | COT and cyclin D1 expression ([5]; intrinsically vemurafenib-resistant RPMI7951 and WM39, respectively): degrade both COT and cyclin D1
